Results as given in ChEMBL document CHEMBL1130686, “A new series of C3-aza carbocyclic influenza neuraminidase inhibitors: synthesis and inhibitory activity” (Bioorg Med Chem Lett, 1998).

biological target: Neuraminidase (Influenza A virus (A/Puerto Rico/8/1934(H1N1)), UniProt P03468); experiment: Inhibition of neuraminidase of influenza A

Structure (SMILES)	IC50 [nM]
CCCN[C@@H]1C=C(C(=O)O)C[C@H](N)[C@H]1NC(C)=O	200
CCCN(CC)[C@@H]1C=C(C(=O)O)C[C@H](N)[C@H]1NC(C)=O	90
CCC(CC)N(C)[C@@H]1C=C(C(=O)O)C[C@H](N)[C@H]1NC(C)=O	6
CCC(=O)N[C@@H]1C=C(C(=O)O)C[C@H](N)[C@H]1NC(C)=O	2700
CCCCN(CC)[C@@H]1C=C(C(=O)O)C[C@H](N)[C@H]1NC(C)=O	85
CC(=O)N[C@H]1[C@H](N(C)CCc2ccccc2)C=C(C(=O)O)C[C@@H]1N	100
CC(=O)N[C@@H]1[C@@H](N)CC(C(=O)O)=C[C@H]1NC(=O)C(C)C	6400
CC(=O)N[C@H]1[C@H](N(C)C2CCCCC2)C=C(C(=O)O)C[C@@H]1N	200
CCC(CC)N[C@@H]1C=C(C(=O)O)C[C@H](N)[C@H]1NC(C)=O	11
CCC(CC)C(=O)N[C@@H]1C=C(C(=O)O)C[C@H](N)[C@H]1NC(C)=O	4000
CCCN(CCC)[C@@H]1C=C(C(=O)O)C[C@H](N)[C@H]1NC(C)=O	12
CCCCN(C)[C@@H]1C=C(C(=O)O)C[C@H](N)[C@H]1NC(C)=O	180
